# Assay results published in patent US20090042783A1, “APO E ANALOGS AND METHODS FOR THEIR USE” (priority 2004, published 2009).
# Non-standard residues stand in square brackets, D forms with d. Residues, ends and D or L forms follow the SMILES beside them. Aib = CC(C)(N)C(=O)O
# Key:
# [1] = Maximum tolerated dose, tail vein injection; details: mouse, in vivo, intravenous, highest dose with death of no mice in 24 hours, tail vein
# Experimental: (§1) Candidate compounds are then be screened in our closed head injury model of traumatic brain injury by intravenous dosing at 30 minutes post injury. Novel compounds are initially tested at one half their maximum tolerated dose (0.5×MTD). The maximum tolerated dose (MTD) is the dose of peptide given in a tail vein injection that results in no death of mice. Death is defined as a complete lack of breathing and complete unresponsiveness to external stimuli such as tail pinch and/or toe pinch for a period of 10 or more minutes. Animals are given an initial dose of 1 mg/kg of peptide analog or non-peptide mimetic and observed continuously for 15 minutes and then at 15 minute intervals for 2 hours and then at 1 hour intervals for 4 hours more. Animals are also observed at 24 hours post injection.
# (§2) The maximum tolerated dose is the maximum dose at which no animals die at any of these observation times. As an example of this procedure, the MTD is determined empirically by initially dosing groups of 3 mice at 1 mg/kg. If this dose is tolerated, then another group of 3 mice is dosed at 3 mg/kg. If this dose is tolerated, then another group of 3 mice is dosed at 9 mg/kg, etc. If, for example, 9 mg/kg is not tolerated because 1 or more animal died, then doses in-between 3 mg/kg and 9 mg/kg are investigated until the MTD is found. Once the MTD is empirically determined, it is confirmed in another group of 7 mice for a total of 10 mice being tested at the MTD and all of which must not die to confirm that this is the MTD.
# mice = test: Maximum tolerated dose, tail vein injection; details: mouse, in vivo
# Experimental: as §1, §2
# RAW 264.7 macrophages [2] = test: NO production and iNOS mRNA in C. rodentium-stimulated macrophages; type: cell-based, mouse; details: C. rodentium lysates; COG1410 2 μM, COG4502 0.1-5 μM
# Excerpt: RAW 264.7 cells were stimulated with French-pressed lysates of C. rodentium at a multiplicity of infection of 100. […] B, RT-PCR for iNOS.
# We used bacterial lysates to more closely mimic the bacterial products to which lamina propria macrophages are likely to be exposed.
# [3] = mouse, in vivo
# Excerpt: We have employed a similar LC/MS procedure to identify fragments of COG1410 that may arise by degradation processes.
# RAW 264.7 macrophages [4] = test system: RAW 264.7 macrophages
# in vivo = details: male, C57B1/6, mouse, 0.4 mg/kg
# [5] = test system: mice with traumatic brain injury; test: Closed head injury model of traumatic brain injury (rotorod, Morris Water Maze)
# Experimental: C57Bl/6J male mice (The Jackson Laboratory, ME), 12-16 weeks of age and weighing 24-32 g, are used for all experiments. Anesthesia is first induced with isoflurane in 30% O2/balance N2. The trachea is intubated and the lungs mechanically ventilated with 1.6% isoflurane in 30% O2/balance N2. Temperature is monitored with a rectal probe and maintained at 36.5° C. with a heat lamp. The right internal jugular vein is cannulated with silicone catheter. […] Intubated animals are then placed prone on a molded acrylic cast (FIG. 6A). […] The scalp is incised and the skull exposed. A concave 3 mm metallic disc is secured to the skull surface (with the concave surface in juxtaposition to the skull) by an adhesive. […] The disc is placed directly midline just caudal to bregma (FIG. 6B). […] The mice are positioned in a stereotactic frame. Although the stereotactactic frame helps to stabilize the animal and exactly calibrate the vertical displacement on impact (3 mm), ear bars are not used due to a much higher rate of skull fracture (or brainstem injury if the head rotates around the axis of the ear bars during impact). The piston is discharged at 6.8±0.2 m/s so as to impact the skull in the acrylic mold to move a maximum of approximately 3 mm (FIG. 6C). Inspired isoflurane is decreased to 0.7% immediately after impact. The scalp was infiltrated with lidocaine and closed with suture. Ophthalmic ointment was applied to the eyes for protection. The incidence of skull fracture is low (approximately 10%), as the metal disk helps to diffuse the impact, and the absence of ear bar fixation allows for displacement of the entire head. Mice were excluded if a depressed skull fracture was observed (incidence of approximately 10%). The animals are allowed to recover spontaneous ventilation then extubated. […] In these mice, arterial blood pressure, blood gas and glucose measurement at baseline, immediately after injury, and 15 minutes after injury are monitored during the recovery period.
# Briefly, baseline performance on rotorod is established before the mice are intubated, the skin over the scalp reflected and a controlled cortical impact from a pneumatic impactor given on the midline. The skin is closed with surgical clips and the animals are constantly monitored until awake from anesthesia and then hourly for the next 4 hours. […] Performance on rotorod is tested at 24 hours post impaction and then every day for 5 days and data is presented as described. Groups of 12 mice are used for each compound at 0.5×MTD. […] Novel peptides and non-peptide analogs are also given by tail vein injection.
# Daily Rotarod (RR) testing was used to assess short term motor and cerebellar deficit following head injury (Hamm et al., 1994). Mice were held by their tails and placed on the RR facing the wall by using gentle swinging motion while running in a constant speed mode.
smiles,measurement,setting,value
"CC(=O)N[C@@H](C)C(=O)N[C@@H](CO)C(=O)NC(C)(C)C(=O)N[C@@H](CC(C)C)C(=O)N[C@@H](CCCNC(=N)N)C(=O)N[C@@H](CCCCN)C(=O)N[C@@H](CC(C)C)C(=O)NC(C)(C)C(=O)N[C@@H](CCCCN)C(=O)N[C@@H](CCCNC(=N)N)C(=O)N[C@@H](CC(C)C)C(=O)N[C@@H](CC(C)C)C(N)=O [COG1410, Ac-AS-Aib-LRKL-Aib-KRLL-NH2] (Ac-AS[Aib]LRKL[Aib]KRLL-NH2)",Biologic Activity relative to COG133,"BV2 microglial cells; Table 2, preliminary data",>5x x COG133
same,IC50,"BV2 microglial cells; read-out: IC50, inhibition of nitric oxide release, BV2 cells, LPS for 40 hours, approximate",~2000 nM
same,MTD at 24 h,[1],8 mg/kg
same,Therapeutic Index (ratio of the MTD to the MED),mice,26
same,NO production (nitrite levels) in macrophage supernatants,RAW 264.7 macrophages [2],inhibition of NO production
same,Major metabolite in plasma,[3],acetyl-AS-Aib-LRKL-Aib-KR
same,Concentration at which cell toxicity was noted,RAW 264.7 macrophages [4],≥ 5 µM
same,half-life,in vivo,2 min
same,Neuroprotection (rotorod) when administered 120 minutes after TBI,"[5]; 120 minutes after TBI, vs saline",neuroprotective
same,Minimum effective dose (MED),"[5]; lowest dose with statistically significant improvement vs vehicle, preliminary",0.3 mg/kg
same,Gain in therapeutic window as compared to COG133,"[5]; mouse, in vivo",4 fold
